The values below come from patent US20230295181A1, “INHIBITOR OF APOPTOSIS (IAP) PROTEIN ANTAGONISTS” (Sanford Burnham Prebys Medical Discovery Institute, priority 2020, published 2023).

Common to all, as to assay type: cell-based
The subject of one data set is SKOV-3. In words: Cell viability (CellTiterGlo), SKOV-3. As to conditions: Homo sapiens, SK-OV-3. On the procedure:
(§1) Candidate compounds are tested in 384-well plates for effects on cell viability in the presence or absence of an appropriate conventional anticancer drug. Cell viability is indirectly monitored in the first instance using CellTiterGlo (Promega Corp., Madison, WI) (Table D). To determine if cell death is apoptotic, the induction of caspase activity is assessed utilizing the CaspaseGlo Assay system (Promega Corp., Madison, WI) (Table E). Cell viability is monitored 1 to 3 days after addition of compounds and conventional drugs. […] A compound of any of the formulae as disclosed herein is evaluated in combination with said anticancer drug to determine which ML-IAP antagonist can sensitize most efficaciously. Select candidate compounds are tested in 14 point drug dose response (DDR) curves in a 384-well format in order to establish potency in combination with decreasing concentrations of lung cancer relevant drug regimens. Furthermore, checker-board titrations of a conventional drug and the candidate molecules are performed to search for synergy (using ISOBOLOGRAM analysis). Compounds and combinations as described herein are also tested for cytotoxicity against normal human cells (e.g. primary fibroblasts, lymphocytes, hepatocytes, epithelial and endothelial cells) using known methods.
(§2) Cell viability was evaluated following treatment with a compound as disclosed in Table D. Viability of cancer cells following treatment is indicated according to the following legend: […]
In general terms: Cellular ATP, detected with luciferase, serves as a proxy for viable cell number.

A further data set has as its system OVCAR-4. The data set can be described thus: Cell viability (CellTiterGlo), OVCAR-4. As to conditions: Homo sapiens. The protocol:
as §1, §2

Another data set concerns SKOV-3 cancer cell lines. In words: SKOV-3 cell viability after treatment with 10 μM test compound. Conditions: for % viability after treatment with 10 micromolar of test compound (SKOV-3 cells): 10 micromolar test compound; for viability at 10 µM: Homo sapiens, SK-OV-3, 10 micromolar test compound, SKOV-3 cells. On the procedure: SKOV-3 cancer cell lines were treated with a test compound, either as a pure enantiomer or a mixture of stereoisomers, at a concentration of 10 μM. Cell viability was evaluated following treatment with a compound as disclosed in Table B. Viability of cancer cells following treatment is indicated according to the following legend:
A=0-25% viability B=26-50% viability C=>50% viability

SMILES strings stand for the structures. Structures can show the parent of a compound that is named as a salt.

Take `CN[C@@H](C)C(=O)N[C@H]1CCS[C@H]2CC(CCc3ccccc3)[C@@H](C(=O)N[C@@H]3CCCc4ccccc43)N2C1=O` (stereo partly drawn) [Compound 44, (4S,9aS)-4-((S)-2-(methylamino)propanamido)-5-oxo-8,8-phenethyl-N—((R)-1,2,3,4-tetrahydronaphthalen-1-yl)octahydropyrrolo[2,1-b][1,3]thiazepine-7-carboxamide hydrochloride]: the IC50 in the data set on SKOV-3 and with OVCAR-4 was greater than 1 µM in each case. Further, in the data set with SKOV-3 cancer cell lines (hydrochloride), the “% viability after treatment with 10 micromolar of test compound (SKOV-3 cells)” value (“% viability after treatment” for short) is listed as “A (A=0-25% viability)”.
Turning to `CCC1(CC)C[C@@H]2OCC[C@H](NC(=O)[C@H](C)NC)C(=O)N2[C@@H]1C(=O)N[C@@H]1CCCc2ccccc21` [Compound 21, (4S)-8,8-diethyl-4-((S)-2-(methylamino)propanamido)-5-oxo-N—((R)-1,2,3,4-tetrahydronaphthalen-1-yl)octahydropyrrolo[2,1-b][1,3]oxazepine-7-carboxamide hydrochloride], the IC50 in the data set with SKOV-3 is 0.01 to 0.1 µM; in the data set on OVCAR-4, 0.1 to 1 µM. The compound also had a viability at 10 µM with SKOV-3 cancer cell lines of 0 to 25%.
For `C=CCC1(CC=C)C[C@@H]2SCC[C@H](NC(=O)[C@H](C)NC)C(=O)N2[C@@H]1C(=O)N[C@@H]1CCCc2ccccc21` [Compound 29, (4S,9aS)-8,8-diallyl-4-((S)-2-(methylamino)propanamido)-5-oxo-N—((R)-1,2,3,4-tetrahydronaphthalen-1-yl)octahydropyrrolo[2,1-b][1,3]thiazepine-7-carboxamide hydrochloride], the IC50 with SKOV-3 and in the data set with OVCAR-4 was greater than 1 µM in each case. Moreover, in the data set with SKOV-3 cancer cell lines (hydrochloride), the “% viability after treatment” value is given as “A (A=0-25% viability)”.
For the compound `CN[C@@H](C)C(=O)N[C@H]1CCO[C@H]2CC(C)(C)[C@@H](C(=O)N[C@@H]3CCOc4ccccc43)N2C1=O` [Compound 74, (4S,7S,9aS)—N—((R)-chroman-4-yl)-8,8-dimethyl-4-((S)-2-(methylamino)propanamido)-5-oxooctahydropyrrolo[2,1-b][1,3]oxazepine-7-carboxamide hydrochloride], the IC50 was 0.01 to 0.1 µM in the data set on SKOV-3 and 0.1 to 1 µM with OVCAR-4. Also, the viability at 10 µM in the data set on SKOV-3 cancer cell lines was 0 to 25%.
With `CN[C@@H](C)C(=O)N[C@H]1CC(CSc2ccccc2)O[C@H]2CC(C)(C)C(C(=O)N[C@@H]3CCCc4ccccc43)N2C1=O` (mixture of isomers) [Compound 75, rac-(4R)-8,8-dimethyl-4-((R)-2-(methylamino)propanamido)-5-oxo-2-((phenylthio)methyl)-N—((S)-1,2,3,4-tetrahydronaphthalen-1-yl)octahydropyrrolo[2,1-b][1,3]oxazepine-7-carboxamide hydrochloride], the concentration for half-maximal inhibition (IC50) with SKOV-3 and in the data set on OVCAR-4 was 0.01 to 0.1 µM each time. The compound further registered a viability at 10 µM in the data set with SKOV-3 cancer cell lines of 0 to 25%.
Turning to `CN[C@@H](C)C(=O)N[C@H]1CCO[C@H]2CC(C)(C)[C@@H](CN[C@@H]3CCCc4ccccc43)N2C1=O` [Compound 56, (S)—N-((4S,7S,9aS)-8,8-dimethyl-5-oxo-7-((((R)-1,2,3,4-tetrahydronaphthalen-1-yl)amino)methyl)octahydropyrrolo[2,1-b][1,3]oxazepin-4-yl)-2-(methylamino)propanamide dihydrochloride], the IC50 with SKOV-3 and in the data set on OVCAR-4 was greater than 1 µM in each case. Also, the viability at 10 µM with SKOV-3 cancer cell lines is greater than 50%.
For the compound `CN[C@@H](C)C(=O)N[C@H]1CCOC2CC(C)(C)[C@@H](C(=O)Nc3ccccc3-c3ncccn3)N2C1=O` (stereo partly drawn) [Compound 55, (4S,7S)-8,8-dimethyl-4-((S)-2-(methylamino)propanamido)-5-oxo-N-(2-(pyrimidin-2-yl)phenyl)octahydropyrrolo[2,1-b][1,3]oxazepine-7-carboxamide hydrochloride], the IC50 in the data set on SKOV-3 and with OVCAR-4 was greater than 1 µM throughout. The compound further showed a viability at 10 µM with SKOV-3 cancer cell lines greater than 50%.
As to `C=CCC1(CC=C)C[C@@H]2OCC[C@H](NC(=O)[C@H](C)NC)C(=O)N2[C@@H]1C(=O)N[C@@H]1CCCc2ccccc21` [Compound 14, (4S,9aS)-8,8-diallyl-4-((S)-2-(methylamino)propanamido)-5-oxo-N—((R)-1,2,3,4-tetrahydronaphthalen-1-yl)octahydropyrrolo[2,1-b][1,3]oxazepine-7-carboxamide hydrochloride], the IC50 in the data set on SKOV-3 and with OVCAR-4 was 0.1 to 1 µM each time. Moreover, the viability at 10 µM with SKOV-3 cancer cell lines lay within 0 to 25%.
On to `CN[C@@H](C)C(=O)N[C@H]1CCS[C@H]2CC(CCc3ccccc3)(CCc3ccccc3)[C@@H](C(=O)N[C@@H]3CCCc4ccccc43)N2C1=O` [Compound 45, (4S,9aS)-4-((S)-2-(methylamino)propanamido)-5-oxo-8,8-diphenethyl-N—((R)-1,2,3,4-tetrahydronaphthalen-1-yl)octahydropyrrolo[2,1-b][1,3]thiazepine-7-carboxamide hydrochloride], for which the IC50 with SKOV-3 is 0.1 to 1 µM; in the data set with OVCAR-4, greater than 1 µM. In the data set on SKOV-3 cancer cell lines, the viability at 10 µM is 0 to 25%.
The like results for `CN[C@@H](C)C(=O)N[C@H]1CCS(=O)(=O)[C@H]2CC(C)(C)[C@@H](C(=O)N[C@@H]3CCCc4ccccc43)N2C1=O` [Compound 1, (4S,7S,9aS)-8,8-dimethyl-4-((S)-2-(methylamino)propanamido)-5-oxo-N—((R)-1,2,3,4-tetrahydronaphthalen-1-yl)octahydropyrrolo[2,1-b][1,3]thiazepine-7-carboxamide 1,1-dioxide hydrochloride] were, in that order, greater than 1 µM, greater than 1 µM and greater than 50%.
For `CN[C@@H](C)C(=O)N[C@H]1CCO[C@H]2CC(C)(C)[C@@H](C(=O)N[C@@H]3CCSc4ccccc43)N2C1=O` [Compound 69, (4S,7S,9aS)-8,8-dimethyl-4-((S)-2-(methylamino)propanamido)-5-oxo-N—((R)-thiochroman-4-yl)octahydropyrrolo[2,1-b][1,3]oxazepine-7-carboxamide hydrochloride], in that order: 0.01 to 0.1 µM, 0.1 to 1 µM and 0 to 25%.
On to `CCC1C[C@@H]2SCC[C@H](NC(=O)[C@H](C)NC)C(=O)N2[C@@H]1C(=O)N[C@@H]1CCCc2ccccc21` (some centres unmarked) [Compound 36, hydrochloride], for which the IC50 in the data set on SKOV-3 lay within 0.01 to 0.1 µM; in the data set on OVCAR-4, 0.1 to 1 µM. The same compound gave a viability at 10 µM in the data set on SKOV-3 cancer cell lines of 26 to 50%.
For `CN[C@@H](C)C(=O)N[C@H]1Cc2c([nH]c3ccccc23)[C@H]2CC(C)(C)C(C(=O)N[C@@H]3CCCc4ccccc43)N2C1=O` (stereo in doubt) [Compound 2, (3R, 6S,12bR)-2,2-dimethyl-6-((S)-2-(methylamino)propanamido)-5-oxo-N—((R)-1,2,3,4-tetrahydronaphthalen-1-yl)-1,2,3,5,6,7,12,12b-octahydropyrrolo[1′,2′:1,2]azepino[3,4-b]indole-3-carboxamide hydrochloride], in that order: greater than 1 µM, greater than 1 µM and 26 to 50%.
In the case of `CN[C@@H](C)C(=O)N[C@H]1Cc2cc(OC)ccc2[C@H]2CC(C)(C)C(C(=O)N[C@@H]3CCCc4ccccc43)N2C1=O` (some centres unmarked) [Compound 34], the “% viability after treatment” value in the data set with SKOV-3 cancer cell lines is given as “C (C=>50% viability)”.
On to `CN[C@@H](C)C(=O)N[C@H]1CCO[C@H]2CC(C(C)C)(C(C)C)[C@@H](C(=O)NC(c3ccccc3)c3ccccc3)N2C1=O` [Compound 60, (4S)—N-benzhydryl-8,8-diisopropyl-4-((S)-2-(methylamino)propanamido)-5-oxooctahydropyrrolo[2,1-b][1,3]oxazepine-7-carboxamide hydrochloride], for which, in the data set on SKOV-3 cancer cell lines (hydrochloride), the “% viability after treatment” value was “A (A=0-25% viability)”.
As for `CN[C@@H](C)C(=O)N[C@H]1CCO[C@H]2CC(CCc3ccccc3)(CCc3ccccc3)[C@@H](C(=O)N[C@@H]3CCCc4ccccc43)N2C1=O` [Compound 24, (4S,9aS)-4-((S)-2-(methylamino)propanamido)-5-oxo-8,8-diphenethyl-N—((R)-1,2,3,4-tetrahydronaphthalen-1-yl)octahydropyrrolo[2,1-b][1,3]oxazepine-7-carboxamide hydrochloride], in the data set on SKOV-3 cancer cell lines (hydrochloride), the “% viability after treatment” value was “B (B=26-50% viability)”.
On to `CN[C@@H](C)C(=O)N[C@H]1Cc2cc(OC)ccc2[C@H]2CC(C)(C)C(C(=O)N[C@@H]3CCCc4ccccc43)N2C1=O` (some centres unmarked) [Compound 7], for which the “% viability after treatment” value in the data set on SKOV-3 cancer cell lines was “B (B=26-50% viability)”.
As to `CCC1C[C@@H]2OCC[C@H](NC(=O)[C@H](C)NC)C(=O)N2C1C(=O)N[C@@H]1CCCc2ccccc21` (stereo partly drawn) [Compound 20, (4S)-8,8-ethyl-4-((S)-2-(methylamino)propanamido)-5-oxo-N—((R)-1,2,3,4-tetrahydronaphthalen-1-yl)octahydropyrrolo[2,1-b][1,3]oxazepine-7-carboxamide hydrochloride], in the data set with SKOV-3 cancer cell lines, the viability at 10 µM is 26 to 50%.

The IC50 is the concentration needed to halve the response being measured. Broadly, the viability is the share of living cells, or the viability signal relative to a control. The low end stands for more harm to the cells, the high end for less harm to the cells.
